Source: patent US11795196B2, “Mitochondria-targeting peptides” (Stealth BioTherapeutics Corp., priority 2017, dated 2023)

Experiment: 3H D-Arg-DMT-Lys-Phe-NH2 displacement filtration binding assay
Conditions: rat heart homogenate, 3H D-Arg-DMT-Lys-Phe-NH2 6-8 nM; range the pharmacological standard had to stay in (quality control)
Method: 1) Radioligand Displacement Methods and Procedures
1.1 Rat Heart Homogenate Preparation
Aptuit is committed to the highest standards of animal welfare and is subject to legislation under the Italian Legislative Decree no. 26/2014. All studies were conducted in accordance with national legislation and under authorization issued by the Italian Ministry of Health. The rat heart homogenate aliquots were prepared according to the following procedure. Hearts from 20 Sprague Dawley male rats were dissected out and quickly frozen at −80° C. On the day of homogenate preparation, hearts were thawed at 4° C. Groups of 2 hearts in 2 volumes of ice cold 20 mM HEPES, 1 mM EDTA, pH 7.4 buffer were homogenized with the GentleMACS dissociator (Miltenyi Biotec) using the D02 protocol. The final suspension of 20 hearts was divided in 4 aliquots with additional ice cold buffer up to 200 mL for each tube, homogenized with a Polytron and centrifuged at 24,000g for 40 min at 4° C. (T21 Sorvall, Rotor SL0250T, 13,500 rpm). For each tube, the supernatant was discarded, and the pellet resuspended with 100 mL of ice cold buffer, homogenized and centrifuged. This step was repeated twice. The final pellets were collected together in one tube with 70 mL of buffer. […] The protein content, measured with the Bradford (Bio-Rad) method using BSA as standard was 6.15 mg/mL. […]

Substance: D-Arg-DMT-Lys-Phe-NH2 [SBT-031]
- pIC50, high affinity value of the unlabeled SBT-031 displacement curve: 7.6±0.5
